The values that follow are results of earlier work, collected in patent US20020094316A1, “Polypodal chelants for metallopharmaceuticals” (priority 2001, published 2002).

The conditions of series [1]: compared with MECAM.

For orientation: half-life means the time needed for the level to fall by half in the phase considered. For `O=C([O-])CN1CCN(CC(=O)[O-])CCN(CC(=O)[O-])CCN(CC(=O)[O-])CC1.[Gd+3]` [Gd(DOTA)^−], the half-life (in 0.1 M HCl) was 60.2 h.

For the compound `O=C(N[C@H]1COC(=O)[C@@H](NC(=O)c2cccc(O)c2O)COC(=O)[C@@H](NC(=O)c2cccc(O)c2O)COC1=O)c1cccc(O)c1O` [enterobactin], the “stability of Fe^3+ complex relative to MECAM” value in series [1] is “much more stable”.

As to `O=C([O-])CN(CCN(CC(=O)[O-])CC(=O)[O-])CCN(CC(=O)[O-])CC(=O)[O-].[Gd+3]` [Gd(DTPA)^2−], the “Kobs (decomposition)” value (acidic conditions) is 1.2×10^−3 so^−1.
